What was measured:
[1] = target: T1, human GR (glucocorticoid receptor) (Homo sapiens, UniProt P04150); experiment: Alternative Binding Assay Protocol (Method 2), 293-GR lysate, 3H-dexamethasone competition; settings: 0.3 nM 3H-dexamethasone
T1 construct: expressed in transfected cells; host or cells: 293 cells
T1 sequence (P04150 1-777): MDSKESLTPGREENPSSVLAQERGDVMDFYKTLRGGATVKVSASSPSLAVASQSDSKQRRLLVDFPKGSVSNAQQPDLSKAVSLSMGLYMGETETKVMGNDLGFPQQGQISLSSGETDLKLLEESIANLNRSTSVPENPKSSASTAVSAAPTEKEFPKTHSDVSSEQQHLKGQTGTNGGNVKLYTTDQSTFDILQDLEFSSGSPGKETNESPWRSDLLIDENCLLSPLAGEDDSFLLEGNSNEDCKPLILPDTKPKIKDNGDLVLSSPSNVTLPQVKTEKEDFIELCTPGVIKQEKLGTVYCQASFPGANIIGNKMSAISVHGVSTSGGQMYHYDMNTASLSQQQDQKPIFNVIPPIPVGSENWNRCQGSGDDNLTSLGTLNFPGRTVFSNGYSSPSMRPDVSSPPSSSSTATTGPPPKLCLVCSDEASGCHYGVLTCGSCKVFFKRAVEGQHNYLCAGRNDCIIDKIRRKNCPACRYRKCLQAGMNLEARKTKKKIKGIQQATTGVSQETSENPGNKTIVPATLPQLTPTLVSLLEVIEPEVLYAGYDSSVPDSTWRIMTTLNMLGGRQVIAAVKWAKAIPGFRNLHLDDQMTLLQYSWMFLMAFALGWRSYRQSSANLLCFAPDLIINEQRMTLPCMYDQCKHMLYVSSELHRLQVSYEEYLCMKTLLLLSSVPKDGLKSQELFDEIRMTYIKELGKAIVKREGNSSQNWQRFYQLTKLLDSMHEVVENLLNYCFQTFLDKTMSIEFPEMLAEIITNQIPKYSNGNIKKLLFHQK
Experimental: Alternative Binding Assay Protocol for MR, GR, AR, and PR (Method 2):
Cell lysates from 293 cells overexpressing human GR (glucocorticoid receptor), AR (androgen receptor), MR (mineralocorticoid receptor) or PR (progesterone-receptor) are used for competition binding assays to determine Ki values for test compounds. […] Competing compounds are added at various concentraions in half-log increments. Non-specific binding is determined in the presence of 500 nM dexamethasone for GR binding, 500 nM aldosterone for MR binding, or 500 nM methyltrienolone for AR and PR binding. The binding reaction (140 μl) is incubated for overnight at 4° C., then 70 μl of cold charcoal-dextran buffer (containing per 50 ml of assay buffer, 0.75 g of charcoal and 0.25 g of dextran) is added to each reaction. Plates are mixed 8 minutes on an orbital shaker at 4° C. Plates are then centrifuged at 3,000 rpm at 4° C. for 10 minutes. An aliquot of 120 μl of the mix is transferred to another 96-well plate and 175 μl of Wallac Optiphase “Hisafe 3” scintillation fluid is added to each well. Plates are sealed and shaken vigorously on an orbital shaker. After an incubation of 2 hrs, plates are read in a Wallac Microbeta counter. […] The Kd for ^3H-dexamethasone for GR binding, ^3H-methyltrienolone for AR binding, ^3H-aldosterone for MR binding, or ^3H-methyltrienolone for PR binding, is determined by saturation binding. The IC50 values for compounds are converted to Ki using Cheng-Prusoff equation and the Kd determined by saturation binding assay.

human MR = target: T2, human MR (Homo sapiens, UniProt P08235); experiment: Mineralocorticoid Receptor Binding Assay (Method 1), [3H]-aldosterone competition; settings: 0.5 nM [3H]-aldosterone, human MR expressed in Sf9 cells
T2 construct: The full length human MR gene is cloned from a human kidney or human brain cDNA library; inferred from own knowledge of the pAcHLT vector (N); made in house; host or cells: Sf9 insect cells (baculovirus)
T2 sequence (P08235 1-984): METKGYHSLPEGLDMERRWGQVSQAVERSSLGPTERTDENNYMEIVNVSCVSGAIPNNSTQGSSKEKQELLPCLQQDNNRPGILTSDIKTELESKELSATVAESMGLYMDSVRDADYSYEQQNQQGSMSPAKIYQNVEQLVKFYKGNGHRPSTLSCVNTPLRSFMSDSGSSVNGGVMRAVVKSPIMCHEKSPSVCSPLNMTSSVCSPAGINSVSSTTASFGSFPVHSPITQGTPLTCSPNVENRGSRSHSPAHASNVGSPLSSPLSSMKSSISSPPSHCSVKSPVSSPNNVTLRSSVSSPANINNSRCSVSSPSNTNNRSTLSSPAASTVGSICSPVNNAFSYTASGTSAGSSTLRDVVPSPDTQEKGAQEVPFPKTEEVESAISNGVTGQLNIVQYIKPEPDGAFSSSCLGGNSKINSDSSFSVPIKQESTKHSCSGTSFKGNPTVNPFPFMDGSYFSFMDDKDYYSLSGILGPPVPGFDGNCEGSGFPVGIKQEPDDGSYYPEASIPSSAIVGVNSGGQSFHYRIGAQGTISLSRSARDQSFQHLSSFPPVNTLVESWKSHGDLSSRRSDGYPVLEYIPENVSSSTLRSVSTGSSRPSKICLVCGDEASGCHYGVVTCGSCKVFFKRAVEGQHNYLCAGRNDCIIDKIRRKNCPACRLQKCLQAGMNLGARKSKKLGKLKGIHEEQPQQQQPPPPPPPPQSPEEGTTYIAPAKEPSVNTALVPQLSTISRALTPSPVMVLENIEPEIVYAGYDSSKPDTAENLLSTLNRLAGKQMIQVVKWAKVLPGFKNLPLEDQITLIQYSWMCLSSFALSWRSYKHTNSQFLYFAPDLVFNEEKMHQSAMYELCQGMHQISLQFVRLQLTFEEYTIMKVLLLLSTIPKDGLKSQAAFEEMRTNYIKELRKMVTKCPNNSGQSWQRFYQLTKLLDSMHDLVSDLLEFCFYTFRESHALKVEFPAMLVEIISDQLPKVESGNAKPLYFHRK
Procedure, shortened: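 Full-length human MR expressed in Sf9 cells via baculovirus; lysate supernatant (about 20-25 μg protein) incubated with 0.5 nM [3H]-aldosterone and test compound for about 16 h at 4° C. Buffer was Tris/molybdate/phosphate/pyrophosphate with 10% glycerol, pH 7.5; filter-bound complex counted by scintillation.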

glucocorticoid receptor = target: T3, glucocorticoid receptor (Homo sapiens, UniProt P04150); experiment: Glucocorticoid Receptor Binding Assay (Method 1), [3H]-dexamethasone competition, A549 cell extract; settings: 1.86 nM [3H]-dexamethasone, read-out: GR Ki (nM) Method 1
T3 construct: containing 50-200 ug of A549 cell extract and 1.86 nM; host or cells: A549 human lung epithelial cells
T3 sequence (P04150 1-777): T1 sequence (P04150 1-777)
Procedure, shortened: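 Receptor source: sonicated extract of human A549 lung epithelial cells in glycerol/Tris-HCl pH 7.2 buffer with sodium molybdate. [3H]-dexamethasone competition run 16 h at 4 °C; unbound radioligand stripped with dextran-coated charcoal (8 min, RT) and receptor-bound radioactivity quantified by scintillation counting.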

Ki [1] [nM] | Ki (human MR) [nM] | Ki (glucocorticoid receptor) [nM] | Structure (SMILES)
< 500 | < 500 |  | C[C@](c1ccccc1F)(c1c[nH]c2c(NS(C)(=O)=O)cccc12)C1CC1 [Example 172]
< 500 | < 500 |  | Cc1ccc(C(C)(c2c[nH]c3c(NS(C)(=O)=O)cccc23)C2CC2)cc1 (stereo not drawn) [Example 169]
< 500 | < 500 |  | C[C@@](c1ccc(F)cc1)(c1c[nH]c2c(NS(C)(=O)=O)cccc12)C1CC1 [Example 186]
< 1000 | < 500 |  | CCC(CC)(c1ccc2c(ccn2C(C)=O)c1)c1c[nH]c2c(NS(C)(=O)=O)cccc12 [Example 195]
< 500 | < 500 |  | CCC(CC)(c1ccc2sc(C)nc2c1)c1c[nH]c2c(NS(C)(=O)=O)cccc12 [Example 190]
< 500 | < 500 |  | CCC(c1ccc(F)cc1)(c1c[nH]c2c(NS(C)(=O)=O)cccc12)C1CC1 (stereo not drawn) [Example 165]
< 500 | < 500 |  | C[C@](c1ccc(Cl)cc1)(c1c[nH]c2c(NS(C)(=O)=O)cccc12)C1CC1 [Example 164]
< 500 | < 500 |  | CC(C)CC(C)(c1ccccc1)c1c[nH]c2c(NS(C)(=O)=O)cccc12 (stereo not drawn) [Example 187]
< 500 |  |  | CCc1ccc(C(CC)(CC)c2c[nH]c3c(NS(C)(=O)=O)cccc23)cc1 [Example 171]
< 10000 | < 500 |  | CCC(CC)(c1ccc(C(C)C)cc1)c1c[nH]c2c(NS(C)(=O)=O)cccc12 [Example 182]
< 500 | < 500 |  | CC1(c2c[nH]c3c(NS(C)(=O)=O)cccc23)CCCCc2ccccc21 (stereo not drawn) [Example 189]
< 500 |  |  | CCCC(CCC)(c1ccc(OC)cc1)c1c[nH]c2c(NS(C)(=O)=O)cccc12 [Example 176]
 | < 500 | < 500 | Cc1ccc(C(C)(C)c2c[nH]c3c(NS(C)(=O)=O)cccc23)cc1 [Example 12, N-[3-(1-Methyl-1-p-tolyl-ethyl)-1H-indol-7-yl]-methanesulfonamide]
 | < 500 | < 1000 | COc1ccc(C(C)(c2ccccc2)c2c[nH]c3c(C)cccc23)cc1 (stereo not drawn) [Example 28, 3-[1-(4-Methoxy-phenyl)-1-phenyl-ethyl]-7-methyl-1H-indole]
 | < 500 | < 1000 | CC(C)(c1cc2ccccc2s1)c1c[nH]c2c(NS(C)(=O)=O)cccc12 [Example 13, N-[3-(1-Benzo[b]thiophen-2-yl-1-methyl-ethyl)-1H-indol-7-yl]-methanesulfonamide]
 | < 500 | < 500 | CCC(CC)(c1ccc(SC)cc1)c1c[nH]c2c(NS(C)(=O)=O)cccc12 [Example 8, N-{3-[1-Ethyl-1-(4-methylsulfanyl-phenyl)-propyl]-1H-indol-7-yl}-methanesulfonamide]
 | < 500 | < 500 | CC(C)(c1ccc2ncccc2c1)c1c[nH]c2c(NS(C)(=O)=O)cccc12 [Example 47, N-[3-(1-Methyl-1-quinolin-6-yl-ethyl)-1H-indol-7-yl]-methanesulfonamide]
 | < 1000 | < 10000 | O=C(O)Cn1cc(C(c2ccccc2)(c2ccccc2)c2ccccc2)c2ccccc21 [Example 51, (3-Trityl-indol-1-yl)-acetic acid]
 | < 500 | < 500 | CCC(CC)(c1ccc(C)cc1)c1c[nH]c2c(NS(C)(=O)=O)cccc12 [Example 54, N-[3-(1-Ethyl-1-p-tolyl-propyl)-1H-indol-7-yl]-methanesulfonamide]
 | < 500 | < 500 | CCC(CC)(c1ccccc1C)c1c[nH]c2c(NS(C)(=O)=O)cccc12 [Example 67, N-[3-(1-Ethyl-1-o-tolyl-propyl)-1H-indol-7-yl]-methanesulfonamide]

Structure (SMILES) | Ki [1] [nM] | Ki (human MR) [nM] | Ki (glucocorticoid receptor) [nM]
CCCC(C)(c1ccccc1)c1c[nH]c2c(C)cccc12 (stereo not drawn) [Example 37, 7-Methyl-3-(1-methyl-1-phenyl-butyl)-1H-indole] |  | < 500 | < 500
CCCC(C)(c1ccc(OC)cc1)c1c[nH]c2c(C)cccc12 (stereo not drawn) [Example 20, 3-[1-(4-Methoxy-phenyl)-1-methyl-butyl]-7-methyl-1H-indole] |  | < 500 | < 500
